This note sets out measurements from paper PMC3681500, “Development of an orally-administrative MELK-targeting inhibitor that suppresses the growth of various types of human cancer” (Oncotarget, 2012).

This assay addresses MELK (maternal embryonic leucine zipper kinase) (Homo sapiens, UniProt Q14680). In words: IMAP kinase assay, high-throughput screen followed by dose-response. It counts as biochemical.

Chain of MELK (maternal embryonic leucine zipper kinase) (Q14680 whole entry): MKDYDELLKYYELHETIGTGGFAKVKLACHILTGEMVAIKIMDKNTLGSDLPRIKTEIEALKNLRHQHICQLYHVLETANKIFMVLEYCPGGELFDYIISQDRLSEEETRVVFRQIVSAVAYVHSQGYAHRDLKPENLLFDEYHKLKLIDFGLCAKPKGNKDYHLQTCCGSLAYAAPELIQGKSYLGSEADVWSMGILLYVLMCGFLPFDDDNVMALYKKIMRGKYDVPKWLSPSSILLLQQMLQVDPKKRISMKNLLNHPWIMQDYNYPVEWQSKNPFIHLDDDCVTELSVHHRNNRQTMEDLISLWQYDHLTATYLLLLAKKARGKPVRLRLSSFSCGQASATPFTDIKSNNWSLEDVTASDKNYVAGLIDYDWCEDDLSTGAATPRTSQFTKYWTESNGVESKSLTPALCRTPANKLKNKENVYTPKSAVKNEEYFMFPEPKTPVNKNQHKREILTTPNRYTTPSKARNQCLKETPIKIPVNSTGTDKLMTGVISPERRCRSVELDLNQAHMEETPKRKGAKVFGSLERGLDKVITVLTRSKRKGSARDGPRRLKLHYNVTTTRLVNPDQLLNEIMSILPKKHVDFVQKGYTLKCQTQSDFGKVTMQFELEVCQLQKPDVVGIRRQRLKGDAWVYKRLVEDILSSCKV

As for `CCOC(=O)c1ccc2ncc(C(=O)OCC)c(Nc3ccc(NC(C)=O)cc3)c2c1` [compound 1, diethyl 4-(4-acetamidophenylamino) quinoline-3,6-dicarboxylate], the IC50 stood at 4.8 µM.

Broadly, the IC50 is the point on the concentration scale where inhibition reaches its midpoint.
